These results are taken from ChEMBL document CHEMBL1126122, “Non-prostanoid thromboxane A2 receptor antagonists with a dibenzoxepin ring system. 2” (J Med Chem, 1992).

The structures appear in SMILES notation.

System in the first experiment: not listed separately
Description: Binding affinity at Thromboxane A2/ Prostaglandin H2 receptor by measuring its ability to displace [3H]U-46619 from guinea pig platelets at a compound concentration of 0.1 uM. Conditions: Cavia porcellus.
Regarding `CSc1nc2ccccc2n1C/C=C1\c2ccccc2COc2ccc(C(=O)O)cc21`, the inhibition amounted to 11%.

The species named for another experiment is Cavia porcellus. Description: Inhibitory effect on the U-46619 induced platelet aggregation was determined ex vivo in the guinea pig. In kind it is functional.
Conditions: not given
For the molecule `O=C(O)c1ccc2c(c1)/C(=C/CNS(=O)(=O)c1ccccc1)c1ccccc1CO2`, the “Inhibition of U-46619-induced platelet aggregation” value is on record as 25%.

Consider `O=C(O)Cc1ccc(CCNS(=O)(=O)c2ccc(Cl)cc2)cc1` [DALTROBAN], for which the Aggregation was found to be 0%. `O=C([O-])c1ccc2c(c1)/C(=C\Cn1cnc3ccccc31)c1ccccc1CO2.[Na+]`: the “Inhibition of U-46619-induced platelet aggregation” value came out at 0%. On the same count and under the same terms, then `O=C(O)c1ccc2c(c1)C(SCCc1nc3ccccc3[nH]1)c1ccccc1CO2` (stereo not drawn), with 66.3%; and `O=C(O)c1ccc2c(c1)/C(=C\CCNS(=O)(=O)c1ccccc1)c1ccccc1CO2`, with 59.3%; and `O=C(O)c1ccc2c(c1)C(SCCNS(=O)(=O)c1ccccc1)c1ccccc1CO2` (stereo not drawn), with 11.8%.

The species named for another experiment is Cavia porcellus. Description: Compound was tested for its binding affinity at TXA2/PGH2 receptor by measuring its ability to displace [3H]U-46619 from guinea pig platelets at 0.1 uM.
Conditions: not given
For `Cc1cc2ncn(C/C=C3\c4ccccc4COc4ccc(C(=O)N5CCOCC5)cc43)c2cc1C`, the inhibition is -4%. With `Cc1nc2ccccc2n1C/C=C1\c2ccccc2COc2ccc(C(=O)O)cc21`, the inhibition was 4%. On the same count and under the same terms, then `O=C(O)c1ccc2c(c1)/C(=C/Cn1nnc3ccccc31)c1ccccc1CO2`, with 35%; and `COC(=O)c1ccc2c(c1)/C(=C/Cn1cnc3cc(C)c(C)cc31)c1ccccc1CO2`, with 31%.

On to `O=C(O)c1ccc2c(c1)/C(=C/Cn1cnc3cnccc31)c1ccccc1CO2`, for which the inhibition is -6%. Still for that read-out and setting: then `O=C(O)c1ccc2c(c1)/C(=C\CCNS(=O)(=O)c1ccccc1)c1ccccc1CO2`, with 50%; and `O=C(O)c1ccc2c(c1)C(SCCn1cnc3ccccc31)c1ccccc1CO2` (stereo not drawn), with 9%; and `Cc1cc2ncn(C/C=C3\c4ccccc4COc4ccc(C(=O)Nc5ccccc5C(=O)O)cc43)c2cc1C`, with 6%.

System in another experiment: not listed separately
Description: Binding affinity at TXA2/PGH2 receptor by displacement of [3H]U-46619 from human platelets.
Conditions: not given
A general note: In a radioligand displacement assay an active substance lowers the binding of a labelled ligand.
Consider `Cc1ccc2ncn(C/C=C3\c4ccccc4COc4ccc(C(=O)O)cc43)c2c1`, for which the inhibition constant Ki is 12 nM. As to `COc1cc2ncn(C/C=C3\c4ccccc4COc4ccc(C(=O)O)cc43)c2cc1OC`, the inhibition constant (Ki) worked out at 2.2 nM.

On to `Cc1cc2ncn(C/C=C3\c4ccccc4COc4ccc(C(=O)O)cc43)c2cc1C`, for which the Ki came to 1.2 nM. On the same count and under the same terms, in the case of `O=C(O)c1ccc2c(c1)/C(=C/Cn1cnc3ccc(C(=O)NCc4ccccc4)cc31)c1ccccc1CO2` it was 14 nM. Same read-out and setting: in the case of `COc1ccc2ncn(C/C=C3\c4ccccc4COc4ccc(C(=O)O)cc43)c2c1` it was 7.4 nM; in that of `O=C(O)c1ccc2c(c1)/C(=C/Cn1cnc3ccc(Cl)cc31)c1ccccc1CO2`, 19 nM. Still for that read-out and setting: then `COc1ccc2c(c1)ncn2C/C=C1\c2ccccc2COc2ccc(C(=O)O)cc21`, with 17 nM; and `Cc1cccc2ncn(C/C=C3\c4ccccc4COc4ccc(C(=O)O)cc43)c12`, with 8 nM. `O=C(O)c1ccc2c(c1)/C(=C/Cn1cnc3cc(C(F)(F)F)ccc31)c1ccccc1CO2` gave a Ki of 85 nM.

The molecule `O=C(O)c1ccc2c(c1)/C(=C/Cn1cnc3cc(C(=O)NCc4ccccc4)ccc31)c1ccccc1CO2` showed a Ki of 7.4 nM. On the same count and under the same terms, then `COc1cc(OC)c2ncn(C/C=C3\c4ccccc4COc4ccc(C(=O)O)cc43)c2c1`, with 9.1 nM; and `Cc1cccc2c1ncn2C/C=C1\c2ccccc2COc2ccc(C(=O)O)cc21`, with 38 nM; and `O=C(O)c1ccc2c(c1)/C(=C/Cn1cnc3ccc([N+](=O)[O-])cc31)c1ccccc1CO2`, with 9.1 nM. Same read-out and setting: then `O=C(O)c1ccc2c(c1)/C(=C/Cn1cnc3cc4c(cc31)OCO4)c1ccccc1CO2`, with 3.8 nM; and `COc1cc(OC)c2c(c1)ncn2C/C=C1\c2ccccc2COc2ccc(C(=O)O)cc21`, with 6.7 nM; and `Cc1ccc2c(ncn2C/C=C2\c3ccccc3COc3ccc(C(=O)O)cc32)c1C`, with 46 nM.

For `O=C(O)c1ccc2c(c1)/C(=C/Cn1cnc3cc(Cl)ccc31)c1ccccc1CO2`, the affinity, expressed as Ki, was 11 nM. Still for that read-out and setting: then `O=C(O)c1ccc2c(c1)/C(=C/Cn1cnc3cc(F)ccc31)c1ccccc1CO2`, with 15 nM; and `Cc1ccc2c(c1)ncn2C/C=C1\c2ccccc2COc2ccc(C(=O)O)cc21`, with 110 nM; and `O=C(O)c1ccc2c(c1)/C(=C/Cn1cnc3cc([N+](=O)[O-])ccc31)c1ccccc1CO2`, with 9.2 nM. As to `Cc1cc(C)c2ncn(C/C=C3\c4ccccc4COc4ccc(C(=O)O)cc43)c2c1`, the Ki is 7.6 nM.

Biological target in the next experiment: not listed separately
The experiment is described as follows: Binding affinity at TXA2/PGH2 receptor by measuring its ability to displace [3H]U-46619 from guinea pig platelets.
Conditions: not given
`O=C(O)c1ccc2c(c1)C(SCCNS(=O)(=O)c1ccccc1)c1ccccc1CO2` (stereo not drawn) came in with a Ki of 32 nM.

Still in this experiment, the particulars now being: Cavia porcellus; concentration not given here.
Take `O=C(O)c1ccc2c(c1)/C(=C/CCNS(=O)(=O)c1ccccc1)c1ccccc1CO2`: the inhibition is -6%.

Usually inhibition stands for the drop in the measured response relative to a control, in per cent. Broadly, the Ki is the equilibrium dissociation constant of an inhibitor or competing ligand from its target.
